Drawing on patent publication US20250188110A1, “SPECIFIC SMALL MOLECULE INHIBITORS THAT BLOCK KMT9 METHYLTRANSFERASE ACTIVITY AND FUNCTION” (ALBERT-LUDWIGS-UNIVERSITÄT FREIBURG, priority 2021, published 2025), this text covers IC50, Kd and ΔTm for 19 molecules.

Assay [1] has as its target T1, KMT9 (Homo sapiens, UniProt Q9Y5N5).
T1 sequence (Q9Y5N5 1-214): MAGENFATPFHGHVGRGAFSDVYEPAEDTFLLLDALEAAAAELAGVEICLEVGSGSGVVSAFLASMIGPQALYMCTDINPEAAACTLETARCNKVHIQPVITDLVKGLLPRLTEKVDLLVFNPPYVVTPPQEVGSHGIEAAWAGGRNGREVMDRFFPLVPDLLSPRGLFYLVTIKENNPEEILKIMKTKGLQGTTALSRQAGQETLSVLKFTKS
T1 sequence (Q9UI30 1-120 isoform Q9UI30-2 partner): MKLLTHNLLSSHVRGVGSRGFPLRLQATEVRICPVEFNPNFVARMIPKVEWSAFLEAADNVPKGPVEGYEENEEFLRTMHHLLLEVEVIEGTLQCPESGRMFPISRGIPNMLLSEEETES
Description: KMT9 methyltransferase inhibition assay, 3H-SAM scintillation (entries 1-154). Format: biochemical. Conditions: entries 1-154: 3H-SAM assay, 25 nM KMT9, 5 μM ETF1. The gist of the method:
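Tritium transfer from SAM (0.3 μM 3H-SAM, 0.7 μM unlabelled, final) to 5 μM ETF1 fragment by 25 nM KMT9 was measured after 2 h at 30° C, pH 8.5. Precipitated peptide was collected on filters and scintillation counted; IC50 came from a four-parameter fit of inhibition normalised to controls.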

The target of assay [2] is T1, KMT9. Description: Microscale thermophoresis (MST) KMT9 binding. To be noted: microscale thermophoresis, His-tag labelled KMT9 (20 nM); read-out: MST. The gist of the method: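 Kd from microscale thermophoresis: compound series against 20 nM His-KMT9 labelled via RED-Tris-NTA, buffer 25 mM HEPES (pH 7.5)/100 mM NaCl/1 mM DTT/0.05% Tween, 40% MST power, 100% LED. Reported as classes: A ≤10 nM, B >10–100 nM, C >100–1000 nM, D >1000 nM.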

The target of assay [3] is T1, KMT9. As to the kind of experiment: KMT9 thermal shift assay (SyproOrange). Format: binding. To be noted: ΔTm; 500 µM compound, 2 μM KMT9, 5X SO; read-out: Thermal shift. The gist of the method:
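ΔTm versus DMSO-only control is reported in bins (>20 K, 15–20 K, 10–15 K, ≤10 K), using Tm from Boltzmann sigmoidal fits of SyproOrange melt curves. KMT9 with compound in pH 8.5 BTP buffer containing MgCl2 and DTT was preincubated at 25° C, then ramped 1° C per 15 s up to 95° C.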

In general, IC50 refers to the point on the concentration scale where inhibition reaches its midpoint. A higher IC50 goes with lower potency.

Take `CNc1ncnc2c1ccn2[C@@H]1C[C@H](CS(=O)(=O)CCCNCCc2ccccc2)[C@@H](O)[C@H]1O` [429 (301), (1R,2S,3R,5S)-3-(4-(Methylamino)-7H-pyrrolo[2,3-d]pyrimidin-7-yl)-5-(((3-(phenethylamino)propyl)sulfonyl)methyl) cyclopentane-1,2-diol]: on KMT9 [1], the IC50 is more than 10000 nM. Moreover, the Kd on KMT9 [2] was more than 1000 nM. Besides, at KMT9 [3], the ΔTm at 500 µM is not above 10 °C.

As for `Nc1ncnc2c1c(Br)cn2[C@@H]1C[C@H](CN2CC(CNCCc3ccccc3)C2)[C@@H](O)[C@H]1O` [484 (358), (1R,2S,3R,5R)-3-(4-Amino-5-bromo-7H-pyrrolo[2,3-d]pyrimidin-7-yl)-5-((3-((phenethylamino)methyl)azetidin-1-yl)methyl) cyclopentane-1,2-diol], the IC50 against KMT9 [1] was in the range of 100 to 1000 nM. In addition, on KMT9 [2], the Kd was 10 to 100 nM. Moreover, on KMT9 [3], the ΔTm at 500 µM was in the range of 15 to 20 °C.

As for `CNc1ncnc2c1ccn2[C@@H]1C[C@H](CNCCCNCCc2ccc3ccccc3c2)[C@@H](O)[C@H]1O` [368 (272), (1R,2S,3R,5R)-3-(4-(methylamino)-7H-pyrrolo[2,3-a]pyrimidin-7-yl)-5-(((3-((2-(naphthalen-2-yl)ethyl)amino)propyl)amino)methyl) cyclopentane-1,2-diol], at KMT9 [1], the IC50 is more than 10000 nM. The Kd at KMT9 [2] was more than 1000 nM. In addition, the ΔTm at 500 µM on KMT9 [3] fell in the range of 10 to 15 °C.

`Nc1ncnc2c1c(Br)cn2[C@@H]1C[C@H](CNC[C@@H]2CCCNC2)[C@@H](O)[C@H]1O` [456 (328), (1R,2S,3R,5R)-3-(4-Amino-5-bromo-7H-pyrrolo[2,3-d]pyrimidin-7-yl)-5-(((((R)-piperidin-3-yl)methyl)amino)methyl) cyclopentane-1,2-diol] had an IC50 against KMT9 [1] of more than 10000 nM. Further, at KMT9 [2], the Kd is more than 1000 nM. For the same molecule, the ΔTm at 500 µM on KMT9 [3] lay within 10 to 15 °C.

As for `CC(=O)N1CCC(c2cn([C@@H]3C[C@H](CNCCCNCCc4ccccc4)[C@@H](O)[C@H]3O)c3ncnc(N)c23)CC1` [481 (355), 1-(4-(4-Amino-7-((1R,2S,3R,4R)-2,3-dihydroxy-4-(((3-(phenethylamino)propyl)amino)methyl)cyclopentyl)-7H-pyrrolo[2,3-d]pyrimidin-5-yl)piperidin-1-yl)ethan-1-one], on KMT9 [1], the IC50 lay in the range of 1000 to 10000 nM. In addition, the Kd on KMT9 [2] lay in the range of 100 to 1000 nM. Besides, the ΔTm at 500 µM on KMT9 [3] fell in the range of 10 to 15 °C.

As to `Nc1ncnc2c1c(-c1ccccc1)cn2[C@@H]1C[C@H](CNCCCNCCc2cccc(Oc3ccccc3)c2)[C@@H](O)[C@H]1O` [461 (334), (1R,2S,3R,5R)-3-(4-Amino-5-phenyl-7H-pyrrolo[2,3-d]pyrimidin-7-yl)-5-(((3-((3-phenoxyphenethyl)amino)propyl)amino)methyl) cyclopentane-1,2-diol], at KMT9 [1], the IC50 is 100 to 1000 nM. Moreover, the Kd on KMT9 [2] lay within 100 to 1000 nM. For the same molecule, the ΔTm at 500 µM at KMT9 [3] lay in the range of 15 to 20 °C.

Regarding `Nc1ncnc2c1c(-c1nccs1)cn2[C@@H]1C[C@H](C2CCNCC2)[C@@H](O)[C@H]1O` [487 (360)], the half-maximal inhibitory concentration (IC50) against KMT9 [1] lay in the range of 1000 to 10000 nM. Moreover, the Kd on KMT9 [2] lay within 10 to 100 nM. In addition, the ΔTm at 500 µM at KMT9 [3] lay within 15 to 20 °C.

Molecule `Nc1ncnc2c1c(-c1ncns1)cn2[C@@H]1C[C@H](CNCCCNCCc2ccccc2)[C@@H](O)[C@H]1O` [Compound 601, (1R,2S,3R,5R)-3-(4-amino-5-(1,2,4-thiadiazol-5-yl)-7H-pyrrolo[2,3-d]pyrimidin-7-yl)-5-(((3-(phenethylamino)propyl)amino)methyl)cyclopentane-1,2-diol] had an IC50 against KMT9 [1] of 1000 to 10000 nM. Besides, the Kd at KMT9 [2] is 100 to 1000 nM. For the same molecule, the ΔTm at 500 µM on KMT9 [3] fell in the range of 10 to 15 °C.

`CNc1ncnc2c1ccn2[C@@H]1C[C@H](CN(CCCN)c2cn[nH]c2Br)[C@@H](O)[C@H]1O` [Compound 606, (1S,2R,3R,5R)-3-{[(3-Aminopropyl)(3-bromo-2H-pyrazol-4-yl)amino]methyl}-5-[4-(methylamino)pyrrolo[2,3-d]pyrimidin-7-yl]cyclopentane-1,2-diol] returned an IC50 on KMT9 [1] of more than 10000 nM. For the same molecule, the Kd on KMT9 [2] is more than 1000 nM. Besides, the ΔTm at 500 µM at KMT9 [3] is not above 10 °C.

Consider `Nc1ncnc2c1ccn2[C@@H]1C[C@H](CN(CCCNCCc2ccc(F)cc2)c2c[nH]nc2Br)[C@@H](O)[C@H]1O` [Compound 603, (1R,2S,3R,5R)-3-{4-Aminopyrrolo[2,3-d]pyrimidin-7-yl}-5-{[(3-bromo-2H-pyrazol-4-yl)(3-{[2-(4-fluorophenyl)ethyl]amino}propyl)amino]methyl}cyclopentane-1,2-diol], for which the IC50 at KMT9 [1] lay within 100 to 1000 nM. For the same molecule, the Kd at KMT9 [2] is not above 10 nM. Besides, the ΔTm at 500 µM on KMT9 [3] lay in the range of 15 to 20 °C.

`CNc1ncnc2c1ccn2[C@@H]1C[C@H](C(=O)NCC2CCCCN2)[C@@H](O)[C@H]1O` (stereo partly drawn) [350 (254), (1S,2R,3S,4R)-2,3-dihydroxy-4-(4-(methylamino)-7H-pyrrolo[2,3-d]pyrimidin-7-yl)-N-(piperidin-2-ylmethyl) cyclopentane-1-carboxamide] gave an IC50 at KMT9 [1] of more than 10000 nM. Besides, the Kd on KMT9 [2] is more than 1000 nM. In addition, the ΔTm at 500 µM at KMT9 [3] is not above 10 °C.

Regarding `CNc1ncnc2c1ccn2[C@@H]1C[C@H](CN2CCC23CCNC3)[C@@H](O)[C@H]1O` (stereo partly drawn) [446 (318), (1S,2R,3R,5R)-3-{1,6-Diazaspiro[3.4]octan-1-ylmethyl}-5-[4-(methylamino)pyrrolo[2,3-d]pyrimidin-7-yl]cyclopentane-1,2-diol], the IC50 at KMT9 [1] is more than 10000 nM. Moreover, the Kd on KMT9 [2] was more than 1000 nM. Also, the ΔTm at 500 µM on KMT9 [3] is not above 10 °C.

The molecule `CNc1ncnc2c1ccn2[C@@H]1C[C@H](COCCNCCc2ccccc2)[C@@H](O)[C@H]1O` [419 (290), (1R,2S,3R,5R)-3-[4-(Methylamino)pyrrolo[2,3-d]pyrimidin-7-yl]-5-({2-[(2-phenylethyl)amino]ethoxy}methyl) cyclopentane-1,2-diol] had an IC50 against KMT9 [1] of more than 10000 nM. Moreover, the Kd on KMT9 [2] was more than 1000 nM. Besides, the ΔTm at 500 µM on KMT9 [3] was not above 10 °C.

The molecule `Nc1ncnc2c1c(-c1nc(Cc3ccccc3)cs1)cn2[C@@H]1C[C@H](CNCCCNCCc2ccccc2)[C@@H](O)[C@H]1O` [Compound 605, (1R,2S,3R,5R)-3-(4-Amino-5-(4-benzylthiazol-2-yl)-7H-pyrrolo[2,3-d]pyrimidin-7-yl)-5-(((3-(phenethylamino)propyl)amino)methyl)cyclopentane-1,2-diol] came in with an IC50 against KMT9 [1] of 100 to 1000 nM. For the same molecule, the Kd on KMT9 [2] fell in the range of 10 to 100 nM. In addition, the ΔTm at 500 µM at KMT9 [3] lay in the range of 15 to 20 °C.

As for `CCN(CCCNCCc1cccc(Oc2ccccc2)c1)C[C@H]1C[C@@H](n2ccc3c(NC)ncnc32)[C@H](O)[C@@H]1O` [364 (268), (1S,2R,3R,5R)-3-((ethyl(3-((3-phenoxyphenethyl)amino)propyl)amino)methyl)-5-(4-(methylamino)-7H-pyrrolo[2,3-d]pyrimidin-7-yl) cyclopentane-1,2-diol], the IC50 against KMT9 [1] was 1000 to 10000 nM. Besides, on KMT9 [2], the Kd is 100 to 1000 nM. For the same molecule, the ΔTm at 500 µM at KMT9 [3] lay in the range of 10 to 15 °C.

In turn, `NC[C@H]1C[C@@H](n2cc3c4c(ncnc42)NCCCC3)[C@H](O)[C@@H]1O` [Compound 630, (1S,2R,3R,5R)-3-(Aminomethyl)-5-(7,8,9,10-tetrahydro-2,3,5,6-tetraazacycloocta [cd]inden-2 (6H)-yl)cyclopentane-1,2-diol] displayed an IC50 at KMT9 [1] of more than 10000 nM. For the same molecule, the Kd on KMT9 [2] is more than 1000 nM. Besides, the ΔTm at 500 µM on KMT9 [3] is not above 10 °C.

Turning to `Nc1ncnc2c1ncn2[C@@H]1O[C@H](C(=O)NCCCNC(=O)Nc2ccccc2)[C@@H](O)[C@H]1O` [684 (202), (2S,3S,4R,5R)-5-(6-amino-9H-purin-9-yl)-3,4-dihydroxy-N-(3-(3-phenylureido)propyl) tetrahydrofuran-2-carboxamide], at KMT9 [1], the IC50 was more than 10000 nM. Moreover, on KMT9 [2], the Kd was more than 1000 nM. Further, the ΔTm at 500 µM at KMT9 [3] was not above 10 °C.

In turn, `CNc1ncnc2c1ccn2[C@@H]1C[C@H](CSCCNCCc2ccccc2)[C@@H](O)[C@H]1O` [431 (303), (1R,2S,3R,5S)-3-(4-(Methylamino)-7H-pyrrolo[2,3-d]pyrimidin-7-yl)-5-(((2-(phenethylamino)ethyl)thio)methyl) cyclopentane-1,2-diol] gave an IC50 against KMT9 [1] of more than 10000 nM. For the same molecule, at KMT9 [2], the Kd is more than 1000 nM. For the same molecule, the ΔTm at 500 µM at KMT9 [3] is not above 10 °C.

In turn, `O[C@@H]1[C@H](O)[C@@H](C2CCNCC2)C[C@H]1n1cc2c3c(ncnc31)NCCC2` [Compound 490, (1S,2R,3R,5R)-3-(piperidin-4-yl)-5-(6,7,8,9-tetrahydro-2H-2,3,5,6-tetraazabenzo[cd]azulen-2-yl)cyclopentane-1,2-diol] displayed an IC50 against KMT9 [1] of 1000 to 10000 nM. In addition, on KMT9 [2], the Kd lay in the range of 100 to 1000 nM. Also, on KMT9 [3], the ΔTm at 500 µM lay in the range of 10 to 15 °C.
